Experimental data reported in patent US4994270A, “A54145 antibiotics and process for their production” (Eli Lilly and Company, priority 1988, dated 1991).
Converted amounts (≈) assume the structure as drawn. Starred links: 1 amine or outer side, 2 acyl side, 3 side chain; linkers in the order of their positions; H or OH if unused. Positions of bridges follow the written chain, without caps; N, C: chain ends. Non-standard residues stand in square brackets, D forms with d. Residues, ends and D or L forms follow the SMILES beside them. ξ: configuration not given here. *: point of attachment. Ileψ(thiazoline)Cys = CC[C@H](C)[C@H](N)C1=N[C@H](C(=O)*)CS1; ξAsp(3ξ-OMe) = COC(C(=O)O)C(N)C(=O)O; X1 = CC(CC(=O)O)C(N[*:1])C(=O)[*:2]; ξAsn(3ξ-OH) = NC(=O)C(O)C(N)C(=O)O; dOrn = NCCC[C@@H](N)C(=O)O; X3 = CCC(C)CCCCCCC(=O)*; X2 = CC(C)CCCCCCC(=O)*; Sar = CNCC(=O)O

Assays:
[1] = test system: Staphylococcus aureus S13E; experiment: MIC, conventional agar-dilution assay; type: cell-based
Protocol: (§1) The A54145 antibiotics inhibit the growth of pathogenic bacteria. […] The MIC's in Table IX were determined by conventional agar-dilution assays.

[2] = test system: Staphylococcus aureus V41; experiment: MIC, conventional agar-dilution assay; type: cell-based
Protocol: as §1

[3] = test system: Staphylococcus epidermidis EPI1; experiment: MIC, conventional agar-dilution assay; type: cell-based
Protocol: as §1

[4] = test system: Streptococcus sp. group 2041; experiment: MIC, conventional agar-dilution assay; type: cell-based
Protocol: as §1

[5] = test system: Streptococcus pneumoniae Park1; experiment: MIC, conventional agar-dilution assay; type: cell-based
Protocol: as §1

[6] = test system: Streptococcus pyogenes C203; experiment: MIC, conventional agar-dilution assay; type: cell-based
Protocol: as §1

[7] = test system: Staphylococcus aureus X400; experiment: MIC, conventional agar-dilution assay; type: cell-based
Protocol: as §1

[8] = test system: Staphylococcus aureus X1.1; experiment: MIC, conventional agar-dilution assay; type: cell-based
Protocol: as §1

[9] = test system: Streptococcus sp. group D X66; experiment: MIC, conventional agar-dilution assay; type: cell-based
Protocol: as §1

[10] = test system: Staphylococcus epidermidis 222; experiment: MIC, conventional agar-dilution assay; type: cell-based
Protocol: as §1

[11] = test system: Streptomyces fradiae A54145.1, A54145.2 and A54145.3; experiment: Resistance to antibiotics, sensitivity discs on seeded ISP No. 2 agar plates; conditions: identical for A54145.1, A54145.2, A54145.3; lincomycin 2 μg, penicillin G 10 units, bacitracin 10 units, cephalothin 30 μg, gentamicin 10 μg, neomycin 30 μg, oleandomycin 15 μg, rifampin 5 μg, streptomycin 10 μg, tetracycline 30 μg, tobramycin 10 μg, vancomycin 30 μg
Protocol: Resistance to antibiotics was measured by padding antibiotic sensitivity discs onto the surface of seeded ISP No. 2 agar plates.

Compound: CCC(C)CCCCCCC(=O)NC(Cc1c[nH]c2ccccc12)C(=O)NC(CCC(=O)O)C(=O)NC(C(=O)NC1C(=O)N(C)CC(=O)NC(C)C(=O)NC(CC(=O)O)C(=O)NC(CCCCN)C(=O)NC(C(OC)C(=O)O)C(=O)NCC(=O)NC(CC(N)=O)C(=O)NC(C(C)CC(=O)O)C(=O)NC(C(C)C)C(=O)OC1C)C(O)C(N)=O (stereo not shown) [Component A54145C] (X3-WE[ξAsn(3ξ-OH)]T[Sar]ADK[ξAsp(3ξ-OMe)]GN[X1]V; ester 4-C; configuration not given here)
- MIC [1]: 2 µg/mL (≈ 1.21 µM)
- MIC [2]: 2 µg/mL (≈ 1.21 µM)
- MIC [3]: 2 µg/mL (≈ 1.21 µM)
- MIC [4]: 4 µg/mL (≈ 2.41 µM)
- MIC [5]: 2 µg/mL (≈ 1.21 µM)
- MIC [6]: 0.5 µg/mL (≈ 0.301 µM)
- MIC [7]: 2 µg/mL (≈ 1.21 µM)
- MIC [8]: 2 µg/mL (≈ 1.21 µM)
- MIC [9]: 4 µg/mL (≈ 2.41 µM)
- MIC [10]: 1 µg/mL (≈ 0.603 µM)

Compound: CCC(C)CCCCCCC(=O)NC(Cc1c[nH]c2ccccc12)C(=O)NC(CCC(=O)O)C(=O)NC(C(=O)NC1C(=O)N(C)CC(=O)NC(C)C(=O)NC(CC(=O)O)C(=O)NC(CCCCN)C(=O)NC(C(OC)C(=O)O)C(=O)NCC(=O)NC(CC(N)=O)C(=O)NC(CCC(=O)O)C(=O)NC(C(C)CC)C(=O)OC1C)C(O)C(N)=O (stereo not shown) [Component A54145D] (X3-WE[ξAsn(3ξ-OH)]T[Sar]ADK[ξAsp(3ξ-OMe)]GNEI; ester 4-C; configuration not given here)
- MIC [1]: 4 µg/mL (≈ 2.41 µM)
- MIC [2]: 4 µg/mL (≈ 2.41 µM)
- MIC [3]: 2 µg/mL (≈ 1.21 µM)
- MIC [4]: 32 µg/mL (≈ 19.3 µM)
- MIC [5]: 4 µg/mL (≈ 2.41 µM)
- MIC [6]: 0.5 µg/mL (≈ 0.301 µM)
- MIC [7]: 4 µg/mL (≈ 2.41 µM)
- MIC [8]: 4 µg/mL (≈ 2.41 µM)
- MIC [9]: 4 µg/mL (≈ 2.41 µM)
- MIC [10]: 2 µg/mL (≈ 1.21 µM)

Compound: CCC(C)CCCCCCC(=O)NC(Cc1c[nH]c2ccccc12)C(=O)NC(CCC(=O)O)C(=O)NC(C(=O)NC1C(=O)N(C)CC(=O)NC(C)C(=O)NC(CC(=O)O)C(=O)NC(CCCCN)C(=O)NC(C(OC)C(=O)O)C(=O)NCC(=O)NC(CC(N)=O)C(=O)NC(C(C)CC(=O)O)C(=O)NC(C(C)CC)C(=O)OC1C)C(O)C(N)=O (stereo not shown) [Component A54145E] (X3-WE[ξAsn(3ξ-OH)]T[Sar]ADK[ξAsp(3ξ-OMe)]GN[X1]I; ester 4-C; configuration not given here)
- MIC [1]: 2 µg/mL (≈ 1.2 µM)
- MIC [2]: 2 µg/mL (≈ 1.2 µM)
- MIC [3]: 1 µg/mL (≈ 0.598 µM)
- MIC [4]: 4 µg/mL (≈ 2.39 µM)
- MIC [5]: 1 µg/mL (≈ 0.598 µM)
- MIC [6]: 0.25 µg/mL (≈ 0.149 µM)
- MIC [7]: 2 µg/mL (≈ 1.2 µM)
- MIC [8]: 1 µg/mL (≈ 0.598 µM)
- MIC [9]: 2 µg/mL (≈ 1.2 µM)
- MIC [10]: 1 µg/mL (≈ 0.598 µM)

Compound: COC(C(=O)O)C1NC(=O)C(CCCCN)NC(=O)C(CC(=O)O)NC(=O)C(C)NC(=O)CN(C)C(=O)C(NC(=O)C(NC(=O)C(CCC(=O)O)NC(=O)C(Cc2c[nH]c3ccccc23)NC(=O)CCCCCCC(C)C)C(O)C(N)=O)C(C)OC(=O)C(C(C)C)NC(=O)C(CCC(=O)O)NC(=O)C(CC(N)=O)NC(=O)CNC1=O (stereo not shown) [Component A54145F] (X2-WE[ξAsn(3ξ-OH)]T[Sar]ADK[ξAsp(3ξ-OMe)]GNEV; ester 4-C; configuration not given here)
- MIC [1]: 16 µg/mL (≈ 9.81 µM)
- MIC [2]: 16 µg/mL (≈ 9.81 µM)
- MIC [3]: 16 µg/mL (≈ 9.81 µM)
- MIC [4]: > 32 µg/mL
- MIC [5]: 8 µg/mL (≈ 4.91 µM)
- MIC [6]: 4 µg/mL (≈ 2.45 µM)
- MIC [7]: 16 µg/mL (≈ 9.81 µM)
- MIC [8]: 16 µg/mL (≈ 9.81 µM)
- MIC [9]: 16 µg/mL (≈ 9.81 µM)
- MIC [10]: 8 µg/mL (≈ 4.91 µM)

Compound: CC[C@H](C)[C@H](N)C1=N[C@H](C(=O)N[C@@H](CC(C)C)C(=O)N[C@H](CCC(=O)O)C(=O)N[C@H](C(=O)N[C@H]2CCCCNC(=O)[C@H](CC(N)=O)NC(=O)[C@@H](CC(=O)O)NC(=O)[C@H](Cc3cnc[nH]3)NC(=O)[C@@H](Cc3ccccc3)NC(=O)[C@H]([C@@H](C)CC)NC(=O)[C@@H](CCCN)NC2=O)[C@@H](C)CC)CS1 [bacitracin] ({Ileψ(thiazoline)Cys}-L[dE]IK[dOrn]I[dF]H[dD]N; lactam 4-C)
- resistance or sensitivity of the strains to antibiotic discs [11]: sensitive

Compound: CC(=O)OCC1=C(C(=O)O)N2C(=O)[C@@H](NC(=O)Cc3cccs3)[C@H]2SC1 [cephalothin]
- resistance or sensitivity of the strains to antibiotic discs [11]: sensitive

Compound: CCC[C@@H]1C[C@@H](C(=O)N[C@@H]([C@H]2O[C@H](SC)[C@H](O)[C@@H](O)[C@H]2O)[C@@H](C)O)N(C)C1 [lincomycin]
- resistance or sensitivity of the strains to antibiotic discs [11]: resistant

Compound: CO[C@H]1C[C@H](O[C@H]2[C@H](C)[C@@H](O[C@@H]3O[C@H](C)C[C@H](N(C)C)[C@H]3O)[C@@H](C)C[C@@]3(CO3)C(=O)[C@H](C)[C@@H](O)[C@@H](C)[C@@H](C)OC(=O)[C@@H]2C)O[C@@H](C)[C@@H]1O [oleandomycin]
- resistance or sensitivity of the strains to antibiotic discs [11]: sensitive

Compound: CC1(C)S[C@@H]2[C@H](NC(=O)Cc3ccccc3)C(=O)N2[C@H]1C(=O)O [penicillin G]
- resistance or sensitivity of the strains to antibiotic discs [11]: resistant

Compound: CO[C@H]1/C=C/O[C@@]2(C)Oc3c(C)c(O)c4c(O)c(c(/C=N/N5CCN(C)CC5)c(O)c4c3C2=O)NC(=O)/C(C)=C\C=C\[C@H](C)[C@H](O)[C@@H](C)[C@@H](O)[C@@H](C)[C@H](OC(C)=O)[C@@H]1C [rifampin]
- resistance or sensitivity of the strains to antibiotic discs [11]: sensitive

Compound: [H]/N=C(/N)N[C@H]1[C@H](O)[C@@H](O)[C@H](O[C@@H]2O[C@@H](C)[C@](O)(C=O)[C@H]2O[C@@H]2O[C@@H](CO)[C@H](O)[C@@H](O)[C@@H]2NC)[C@@H](N/C(N)=N\[H])[C@@H]1O [streptomycin]
- resistance or sensitivity of the strains to antibiotic discs [11]: sensitive

Compound: CN(C)[C@@H]1C(O)=C(C(N)=O)C(=O)[C@@]2(O)C(O)=C3C(=O)c4c(O)cccc4[C@@](C)(O)[C@H]3C[C@@H]12 [tetracycline]
- resistance or sensitivity of the strains to antibiotic discs [11]: sensitive

Compound: NC[C@H]1O[C@H](O[C@H]2[C@H](O)[C@@H](O[C@H]3O[C@H](CO)[C@@H](O)[C@H](N)[C@H]3O)[C@H](N)C[C@@H]2N)[C@H](N)C[C@@H]1O [tobramycin]
- resistance or sensitivity of the strains to antibiotic discs [11]: sensitive

Compound: CN[C@H](CC(C)C)C(=O)N[C@H]1C(=O)N[C@@H](CC(N)=O)C(=O)N[C@H]2C(=O)N[C@H]3C(=O)N[C@H](C(=O)N[C@H](C(=O)O)c4cc(O)cc(O)c4-c4cc3ccc4O)[C@H](O)c3ccc(c(Cl)c3)Oc3cc2cc(c3O[C@@H]2O[C@H](CO)[C@@H](O)[C@H](O)[C@H]2O[C@H]2C[C@](C)(N)[C@H](O)[C@H](C)O2)Oc2ccc(cc2Cl)[C@H]1O [vancomycin]
- resistance or sensitivity of the strains to antibiotic discs [11]: sensitive

Compound: gentamicin
- resistance or sensitivity of the strains to antibiotic discs [11]: sensitive

Compound: neomycin
- resistance or sensitivity of the strains to antibiotic discs [11]: sensitive
